Tests used:
[1] = target: T1, Histone deacetylase (HDAC1 and HDAC2) (Homo sapiens, UniProt Q13547+Q92769); assay: Inhibition of human histone deacetylase (mixture of HDAC1 and HDAC2) prepared from K562 erythroleukemia cells; format: cell-based; settings: concentration not given here
HT-1080 = assay: Anti-proliferative activity against human tumor cell line HT1080; format: functional, cell-based
MDA-MB-435 = assay: Anti-proliferative activity against human tumor cell line MDA-435; format: functional, cell-based
[2] = target: T1, Histone deacetylase (HDAC1 and HDAC2); assay: Inhibition of human histone deacetylase (mixture of HDAC1 and HDAC2) prepared from K562 erythroleukemia cells.; format: cell-based

T1 sequence (Q13547 whole entry, looked up): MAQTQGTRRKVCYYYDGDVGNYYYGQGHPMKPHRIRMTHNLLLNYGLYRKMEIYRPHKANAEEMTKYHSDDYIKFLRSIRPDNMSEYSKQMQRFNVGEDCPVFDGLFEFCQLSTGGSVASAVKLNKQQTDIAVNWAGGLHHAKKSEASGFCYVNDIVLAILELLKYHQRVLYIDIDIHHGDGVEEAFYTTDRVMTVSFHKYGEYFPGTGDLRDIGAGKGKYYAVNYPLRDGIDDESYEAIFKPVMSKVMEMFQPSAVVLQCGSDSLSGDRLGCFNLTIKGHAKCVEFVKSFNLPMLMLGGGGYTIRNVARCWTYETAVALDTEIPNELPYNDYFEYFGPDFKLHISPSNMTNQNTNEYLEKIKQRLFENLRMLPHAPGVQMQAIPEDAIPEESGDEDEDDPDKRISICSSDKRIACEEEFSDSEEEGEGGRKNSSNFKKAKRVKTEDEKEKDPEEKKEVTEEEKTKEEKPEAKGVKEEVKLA
T1 sequence (Q92769 whole entry, looked up): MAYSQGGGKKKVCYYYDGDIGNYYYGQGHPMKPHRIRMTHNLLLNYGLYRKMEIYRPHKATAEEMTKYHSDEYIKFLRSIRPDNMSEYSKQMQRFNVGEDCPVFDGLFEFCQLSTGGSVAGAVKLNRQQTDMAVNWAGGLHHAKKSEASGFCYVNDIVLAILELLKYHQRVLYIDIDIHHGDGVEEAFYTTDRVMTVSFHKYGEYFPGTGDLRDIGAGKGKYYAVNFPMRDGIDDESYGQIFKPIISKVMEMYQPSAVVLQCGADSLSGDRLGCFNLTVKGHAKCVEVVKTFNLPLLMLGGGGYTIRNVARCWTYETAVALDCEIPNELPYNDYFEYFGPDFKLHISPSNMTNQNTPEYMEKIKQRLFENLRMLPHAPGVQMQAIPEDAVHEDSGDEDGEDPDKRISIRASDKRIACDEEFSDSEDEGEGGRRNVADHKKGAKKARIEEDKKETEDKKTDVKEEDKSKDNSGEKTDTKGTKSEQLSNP

inhibition [1] | IC50 (HT-1080) | IC50 (MDA-MB-435) | IC50 [2] | SMILES
72% | – | – | – | O=C(CCCCCCCOc1ccc(-c2ccccc2)cc1)C(F)(F)F
– | 2.2 µM | 15 µM | – | O=C(CCCCCCC(=O)C(F)(F)F)Nc1ccccc1
– | 16 µM | 23 µM | 0.38 µM | O=C(CCCCCCC(=O)C(F)(F)F)Nc1cccc(-c2ccccc2)c1

Reference: ChEMBL document CHEMBL1134990, “Trifluoromethyl ketones as inhibitors of histone deacetylase” (Bioorg Med Chem Lett, 2002)
